Measured values published in US20100048692A1, “Naphthofuranone Derivatives as Specific Inhibitors of Thymidylate Synthases” (priority 2006, published 2010).
Converted amounts (≈) assume the structure as drawn.

Tests used:
CnTS = CnTS (Cryptococcus neoformans, UniProt P0CS12); format: biochemical
Procedure: (§1) Enzymatic inhibition assay: The compounds hereby analyzed were previously dissolved in DMSO. The inhibitor concentrated solution was obtained by dissolving 2 mg of compound in 1 mL of DMSO. Next, solutions thus obtained were successively preserved and the […], and the stability of their working conditions was constantly controlled. The spectrophotometrical determinations of enzymatic reaction kinetics were carried out using a Parkin-Elmer λ16 spectrophotometer, provided with a multicell system which was maintained at the constant temperature of 20 C. degrees, with a HAAAKE F3C thermostatted bath.
The elaboration of the data was carried out using Kaleidagraph 3.0; this software was provided by Macintosh (Adelbeck, Software Reading, Pa., 1989, version 2.3). The measurement of Ki (inhibition constant) was obtained through enzymatic inhibition essays carried out under stationary conditions. […] The enzyme is added finally. The assay aiming at controlling TS enzymatic activity is repeated at regular intervals. […] In this case inhibition constants were obtained through a non-linear regression analysis, which utilized of the least squared method, of the enzymatic reaction initial speeds relating to the inhibitor concentration; equation was the following:
Vi=Vmax*(1−([I])/([I]+(Ki*(1+([s]/Km))))), where
Vi=enzymatic reaction initial velocity, Vmax=enzymatic reaction maximum velocity, I=inhibitor concentration, Ki=inhibition constant, S=substrate concentration, Km=Michaelis-Menten.
Using this equation it is possible to obtain Ki making use of a minimal amount of experimental data. The specificity index relating to each of the compounds (Bio. Med. Chem. ) refers to the relation between KihTS/Kiother enzyme.

hDHFR (human DHFR) = biological target: T1, hDHFR (human DHFR) (Homo sapiens, UniProt P00374); assay: Enzymatic inhibition assay (Ki), human DHFR; format: biochemical
T1 construct: made in house; host or cells: Escherichia coli chi2913
T1 sequence (P00374 1-187): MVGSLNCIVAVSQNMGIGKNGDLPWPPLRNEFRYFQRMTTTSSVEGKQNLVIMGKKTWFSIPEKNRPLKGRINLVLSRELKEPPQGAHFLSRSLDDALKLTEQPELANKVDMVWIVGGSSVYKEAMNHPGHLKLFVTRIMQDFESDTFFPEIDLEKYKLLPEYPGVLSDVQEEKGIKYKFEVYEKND
Procedure: The purified enzyme has been stored at −80° C. […] The enzymatic assays for the measurements of the Km consist in measuring the initial rate of the enzymatic reaction in presence of variable and increasing substrate (FAH2).
as §1
The measurement of Ki (inhibition constant) was obtained through enzymatic inhibition essays carried out under stationary conditions. […] The enzyme is added finally. The assay aiming at controlling TS enzymatic activity is repeated at regular intervals. […] In this case inhibition constants were obtained through a non-linear regression analysis, which utilized of the least squared method, of the enzymatic reaction initial speeds relating to the inhibitor concentration; equation was the following: […]

Citrobacter 224 = assay: Sensitivity assay (MIC); format: cell-based
Procedure: (§2) The anti-bacterial properties of the compounds hereby described were evaluated towards: a) bacterial native strains comprehending gram-positive and gram-negative bacteria. The bacterial cultures were obtained by sowing bacteria in Mueller-Hinton (Difco) stirring at 37 C for 24 hours, and were then diluted, after reaching an appreciable level of exponential growth, using a growth plot in order to get a […] CFU/mL inoculum. Following, the obtained cultures were put in contact with growing concentrations of the present compound. Furthermore, it was measured the minimal concentration inhibiting the growth (MIC) of each of these compounds. In Table 2 several MIC obtained by different bacterial pathogenic strains have been reported that were treated using compounds of the present invention and were also compared with those obtained through ciprofluoxacin (cpx).

[1] = system: Enterococcus faecalis ATCCC 29212; assay: Sensitivity assay (MIC); format: cell-based
Procedure: as §2

Escherichia coli 256 = assay: Sensitivity assay (MIC); format: cell-based
Procedure: as §2

Escherichia coli 292 = assay: Sensitivity assay (MIC); format: cell-based
Procedure: as §2

Listeria monocytogenes 3 = assay: Sensitivity assay (MIC); format: cell-based
Procedure: as §2

Listeria monocytogenes 4 = assay: Sensitivity assay (MIC); format: cell-based
Procedure: as §2

Listeria monocytogenes 5 = assay: Sensitivity assay (MIC); format: cell-based
Procedure: as §2

Listeria monocytogenes 6 = assay: Sensitivity assay (MIC); format: cell-based
Procedure: as §2

Listeria monocytogenes 7 = assay: Sensitivity assay (MIC); format: cell-based
Procedure: as §2

Listeria monocytogenes 8 = assay: Sensitivity assay (MIC); format: cell-based
Procedure: as §2

[2] = system: Listeria monocytogenes ATCC 4428; assay: Sensitivity assay (MIC); format: cell-based
Procedure: as §2

[3] = system: Staphylococcus aureus 341; assay: Sensitivity assay (MIC); format: cell-based
Procedure: as §2

[4] = system: Staphylococcus aureus 343; assay: Sensitivity assay (MIC); format: cell-based
Procedure: as §2

[5] = system: Staphylococcus aureus ATCC29213; assay: Sensitivity assay (MIC); format: cell-based
Procedure: as §2

[6] = system: Staphylococcus aureus K28; assay: Sensitivity assay (MIC); format: cell-based
Procedure: as §2

[7] = system: Staphylococcus haemolyticus ATCC 2997; assay: Sensitivity assay (MIC); format: cell-based
Procedure: as §2

[8] = system: Staphylococcus saprophiticus ATCC15305; assay: Sensitivity assay (MIC); format: cell-based
Procedure: as §2

Streptococcus 42 = assay: Sensitivity assay (MIC); format: cell-based
Procedure: as §2

VERO cells = assay: Citotoxicity assay (MTT test on VERO cells); format: cell-based; details: for MTT test, percentage of cellular growth: VERO cells, 24-hour incubation
Procedure: Aiming at evaluating the citotoxicity level, the compounds included in the present invention were submitted to the MTT assay, by using VERO cells on MEM soil/ground which was previously added with […]), penicillin (1%) (50 U/ml), streptomycine (50 μg/ml) e L-glutamine (1%) according to the Ishioka method (1988). Afterwards the cultures have been observed for 2 days through microscope at indirect light, and the living cells have been quantified in a Burker camera using the Tripan blue exclusion assay.
Later several increasing concentrations of the analyzed compound were added thereto and, after a 24-hour incubation period, the mitochondrial dehydrogenase activity was measured in the living cells (MTT assay) (Mosmann, T. 1983), by using a sample of the hereof compound which had not been previously as a comparison.

[9] = system: S. epidermidis strains (multiresistant); assay: Sensitivity assay and growth curve, multiresistant S. epidermidis strains; format: cell-based, Staphylococcus epidermidis
Procedure: (§3) The bacterial cultures were obtained by sowing bacteria in Mueller-Hinton (Difco) stirring at 37 C for 24 hours, and were then diluted, after reaching an appreciable level of exponential growth, using a growth plot in order to get a […] CFU/mL inoculum.
(§4) Following, the obtained cultures were put in contact with growing concentrations of the present compound. Furthermore, it was measured the minimal concentration inhibiting the growth (MIC) of each of these compounds. In Table 2 several MIC obtained by different bacterial pathogenic strains have been reported that were treated using compounds of the present invention and were also compared with those obtained through ciprofluoxacin (cpx).

[10] = system: multiresistant strains (clinical isolates); assay: Sensitivity assay on 23 isolated multiresistant bacterial strains; format: cell-based; details: multiresistant strains taken into consideration
Procedure: as §3, §4

Chain of CnTS (P0CS12 whole entry): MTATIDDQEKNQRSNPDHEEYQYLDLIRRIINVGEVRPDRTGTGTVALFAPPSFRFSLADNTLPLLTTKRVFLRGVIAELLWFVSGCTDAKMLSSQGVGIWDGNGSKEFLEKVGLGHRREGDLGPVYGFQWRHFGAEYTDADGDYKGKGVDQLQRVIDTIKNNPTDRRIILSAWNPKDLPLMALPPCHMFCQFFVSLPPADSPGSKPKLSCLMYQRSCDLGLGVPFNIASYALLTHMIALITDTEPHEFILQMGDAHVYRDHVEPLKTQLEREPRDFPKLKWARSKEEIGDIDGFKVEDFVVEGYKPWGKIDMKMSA

## O=C1OC(c2cc(Br)c(O)c(Br)c2)(c2cc(Br)c(O)c(Br)c2)c2ccc3ccccc3c21 [Compound 5, 3,3-bis-(3,5-bromo-4-hydroxyphenyl)-3H-naphtho(1,2-c)furan-1-one]
CnTS
  Ki: 13 µM
hDHFR (human DHFR)
  Ki: 69 µM
  SSI hTS vs hDHFR: 0.3
Citrobacter 224
  Minimum inhibitory concentration (MIC): >25 µg/mL
[1]
  Minimum inhibitory concentration (MIC): 2.5 µg/mL (≈ 3.66 µM)
Escherichia coli 256
  Minimum inhibitory concentration (MIC): >25 µg/mL
Escherichia coli 292
  Minimum inhibitory concentration (MIC): >25 µg/mL
Listeria monocytogenes 3
  Minimum inhibitory concentration (MIC): 2.5 µg/mL (≈ 3.66 µM)
Listeria monocytogenes 4
  Minimum inhibitory concentration (MIC): 2.5 µg/mL (≈ 3.66 µM)
Listeria monocytogenes 5
  Minimum inhibitory concentration (MIC): 2.5 µg/mL (≈ 3.66 µM)
Listeria monocytogenes 6
  Minimum inhibitory concentration (MIC): 2.5 µg/mL (≈ 3.66 µM)
Listeria monocytogenes 7
  Minimum inhibitory concentration (MIC): 2.5 µg/mL (≈ 3.66 µM)
Listeria monocytogenes 8
  Minimum inhibitory concentration (MIC): 2.5 µg/mL (≈ 3.66 µM)
[2]
  Minimum inhibitory concentration (MIC): 2.5 µg/mL (≈ 3.66 µM)
[3]
  Minimum inhibitory concentration (MIC): 2.5 µg/mL (≈ 3.66 µM)
[4]
  Minimum inhibitory concentration (MIC): 2.5 µg/mL (≈ 3.66 µM)
[5]
  Minimum inhibitory concentration (MIC): 2.5 µg/mL (≈ 3.66 µM)
[6]
  Minimum inhibitory concentration (MIC): 2.5 µg/mL (≈ 3.66 µM)
[7]
  Minimum inhibitory concentration (MIC): 2.5 µg/mL (≈ 3.66 µM)
[8]
  Minimum inhibitory concentration (MIC): 1 µg/mL (≈ 1.46 µM)
Streptococcus 42
  Minimum inhibitory concentration (MIC): 2.5 µg/mL (≈ 3.66 µM)
VERO cells; 1 mg/L, VERO cells (Table 3)
  citotoxicity: not to be citotoxic
VERO cells; 1.56 mg/L
  MTT test, percentage of cellular growth: 100 percentage
VERO cells; 3.12 mg/L
  MTT test, percentage of cellular growth: 100 percentage
VERO cells; 6.25 mg/L
  MTT test, percentage of cellular growth: 100 percentage
VERO cells; 12.05 mg/L
  MTT test, percentage of cellular growth: 100 percentage
VERO cells; 25 mg/L
  MTT test, percentage of cellular growth: 100 percentage
VERO cells; 50 mg/L
  MTT test, percentage of cellular growth: >100 percentage
[9]; 0.1 mg/L
  inhibitory effect on S. epidermidis growth (FIG. 1): No inhibitory effect
[9]; 0.5 mg/L, after a 8 hours period
  antibacterial activity on S. epidermidis growth (FIG. 1): antibacterial activity becomes evident
[9]; 1 mg/L
  antibacterial effect on S. epidermidis growth (FIG. 1): best result
[9]; S. epidemidis strain resistant to 17 antibiotics
  concentration to which the strain is sensitive: 0.5 mg/L
[9]; multiresistant S. epidermidis strains
  lowest MIC on S. epidermidis strains: 0.5 to 1 µg/mL
[10]
  activity on multiresistant strains: active on the major part of the multiresistant strains
